Measured values from paper PMC7093416, “Selective USP7 inhibition elicits cancer cell killing through a p53-dependent mechanism” (Scientific Reports, 2020).
Read-outs that look alike come from different tables or passages of the source.

Legend:
[1] = target: T1, USP7 catalytic domain (Homo sapiens, UniProt Q93009); assay: Intact MS / CE-MS labeling of purified USP7 catalytic domain; format: binding; conditions: 2.5-fold molar excess compound
T1 construct: catalytic domain (208–560) used were cloned as described; inferred from Ni-NTA purification; made in house; host or cells: E. coli BL21 (DE3)
Description: Purified USP7 catalytic domain was diluted to 20 μM in 10 μL labeling buffer (20 mM HEPES pH 7.5, 150 mM NaCl, 1 mM TCEP) and incubated for the indicated times with 50 μM (2.5×) compound. After incubation, samples were flash frozen in liquid nitrogen and stored at −80 °C until analysis.
Intact mass analysis was performed by injecting 5 µg USP7 catalytic domain onto a self-packed reversed phase column (1/32” O.D. × 500 um I.D., 5 cm of POROS 10R2 resin). After desalting, protein was eluted with an HPLC gradient (0–100% B in 4 minutes, A = 0.2 M acetic acid in water, B = 0.2 M acetic acid in acetonitrile, flow rate ~30 µL/min) into an LTQ ion trap mass spectrometer (ThermoFisher Scientific, San Jose, CA). Mass spectra were processed using MagTran1.03b2[52].
Peptides were desalted using SP3[53], dried by vacuum centrifugation, and reconstituted in 1% formic acid/50% acetonitrile with 100 mM ammonium acetate. Peptides were then analyzed by CE-MS using a ZipChip CE system and autosampler (908 Devices, Boston, MA) interfaced to a QExactive HF mass spectrometer (ThermoFisher Scientific, San Jose, CA). Peptide solution was loaded for 30 seconds, and the mass spectrometer was operated in data dependent mode and subjected the 5 most abundant ions in each MS scan (60k resolution, 3E6 target, lock mass enabled) to MS/MS (15k resolution, 1E5 target, 100 ms max inject time). […]

[2] = target: T2, full-length USP7 (Homo sapiens, UniProt Q93009); assay: Ub-AMC enzymatic assay, full-length USP7, 6 h pre-incubation; format: biochemical; conditions: for IC50: Ub-AMC, read-out: IC50
T2 construct: The constructs encoding USP7 full length (amino acids 1–1102) and catalytic domain (208–560); inferred from Ni-NTA purification; made in house; host or cells: E. coli BL21 (DE3)
Description: Full length USP7 was tested for its activity in Ubiquitin-AMC assay in presence or absence of inhibitors. USP7 (5 nM) was pre-incubated for 6 hours at room temperature with different concentrations of inhibitors or DMSO as a control in 50 mM HEPES pH 7.5, 0.5 mM EDTA, 11 uM ovalbumin, and 5 mM DTT. Ubiquitin-AMC (Boston Biochem) was then added to a final concentration of 500 nM. The initial rate of the reaction was measured by collecting fluorescence data at one minute intervals over 30-minute period using a Clariostar fluorescence plate reader at excitation and emission wavelength of 345 and 445 nm respectively. The calculated initial rate values were plotted against inhibitor concentrations to determine IC50s. All the experimental data were plotted using Prism GraphPad. All assays for each compound were performed at least twice for each compound.

[3] = system: MCF7 cells; assay: 3' DGE RNA-seq transcriptional profiling; format: cell-based; design: log2FoldChange: concentration or dose not given beside the values; conditions: gene ABCA12; concentration 1
Description: The DGE RNA sequencing was performed following the published method[39],[40] with modifications as described below. MCF7 cells were seeded in a 384 well plate at 2500 cells per well, allowed to adhere for 24 hours, then treated with two doses in triplicate of XL177A, XL177B, Nutlin-3, or DMSO. After 24 hours of treatment, an EL405x plate washer (BioTek) was used to aspirate the media and wash once with PBS. Cells were lysed in the plate with 10 µl of lysis buffer (1x Qiagen TCL, 1% BME) for 5 minutes at room temperature, then stored at −80 °C. Automated liquid handling was performed with assistance from ICCB-Longwood Screening Facility. A BRAVO Automated Liquid Handling Platform (Agilent) was used for RNA extraction as follows. The lysate was mixed and 10 µl was transferred to a 384 well PCR plate. 28 µl of homemade SPRI[66] (solid-phase reversible immobilization) beads were added to the lysate and mixed. After 5 minutes, the beads were pulled down by placing the plate on a magnet, then the beads were washed twice with 80% ethanol. Beads were air dried for 1 minute, then 20 µl of nuclease free water was added, the plate was removed from the magnet, and the beads were resuspended. After 5 minutes, the plate was placed back on the magnet to pull down the beads. The supernatant was transferred to a fresh 384 well plate. RNA quantity was checked with the Qubit Fluorometer and RNA quality was assessed using the Agilent BioAnalyzer RNA 6000 Pico Kit. The BRAVO platform was again used to transfer 5 µl of supernatant was transferred to a fresh 384 well plate with RT master mix and 1 µl of barcoded E3V6NEXT adapters for reverse transcription and template switching. The plate was incubated for 90 minutes at 42 °C, then cDNA was pooled, purified with the QIAquick PCR purification kit. The full-length cDNA was treated with Exonuclease I to remove excess primers for 30 minutes at 37 °C then amplified x5 cycles with Advantage 2 PCR Enzyme System using the SINGV6 primer. The amplified full-length cDNA was purified with Agencourt AMPure XP magnetic beads and quantitated by Qubit Fluorometer. The sequencing library was prepared using the Nextera DNA kit following the manufacturer’s instructions. Briefly, 55 ng of cDNA was tagmented for 5 minutes at 55 °C then purified using Zymo DNA Clean & Concetrator-5 column, then amplified x7 cycles and purified using a 0.9x ratio of AMPure XP magnetic beads. The library size distribution was assessed by Agilent BioAnalyzer HS DNA Kit before it was quantified by qPCR and sequenced on an Illumina NextSeq at the Biopolymers Facility at Harvard Medical School.
The bcbio-nextgen single cell RNA-seq analysis pipeline (https://bcbio-nextgen.readthedocs.io/en/latest/) was used to deconvolve the well barcodes and convert reads to counts. Any detected barcode that differed by more than one base from an expected barcode was removed. Unique reads were identified using unique molecular identifiers (UMIs) in order to remove PCR duplicates. The reads remaining after these filters were aligned to the transcriptome (GRCh38) using RapMap[67]. The R package DESeq. 2 version 1.20.0 (R version 3.5.1) was used for differential expression analysis.

[4] = system: Ewing Sarcoma, AML, multiple myeloma and rhabdoid cell lines; assay: Cell viability (CellTiter-Glo) in individual cell line panels; format: cell-based; conditions: Ewing Sarcoma lines and TC32 cells, 3 days
Description: (§1) Cells were plated in 384-well culture-treated plates and allowed to settle overnight. After drug treament and appropriate incubation time, cell viability was assessed using the CellTiter-Glo Luminescent Cell Viability Assay (Promega). Luminescence was read on a Fluostar Omega Reader (BMG Labtech).

[5] = system: TC32 cells; assay: Cell viability (CellTiter-Glo) in TC32 cells expressing sgRNA (TP53-KO vs control); format: cell-based; conditions: 3 days, Cell Titer Glo
Description: as §1

[6] = target: T2, full-length USP7; assay: Ub-AMC time course assay for kinact / KI; format: biochemical
Description: To calculate the ki and kianct values for XL-9678-041, the procedure above was used, but different concentrations of inhibitor were incubated with USP7 for different time points (5 min - 3 hours) before adding Ubiquitin-AMC. To determine kobs, the time course curves were fit to the equation y = ymax(1 − exp(−kobs⋅x)). The kobs values were then plotted against the inhibitor concentrations and fit to the equation y = kinact/(1 + (ki/x)) to obtain the values for ki and kianct.
Supplementary Figure Captions
Figure S1: Full-length recombinant purified USP7 was pre-incubated with XL041 at the indicated concentrations for the indicated times, then Ub-AMC was added and fluorescence was monitored. Graphpad Prism software was used to calculate initial reaction velocity and derive KI / kinact values (bottom panel).
Figure S2: Mass spectra (left) and zero-charge mass spectra (right) of WT USP7 catalytic domain incubated for 4 hours with DMSO (top) or 2.5-fold molar excess XL058 (bottom). […]
Figure S5: MCF7 cells were transfected with the indicated pcDNA constructs for 48 hours, then treated with XL177A at the indicated concentration for 3 hours. Cells were lysed, and FLAG-USP7 target engagement was assessed with the DUB ABP HA-Ub-VS. Densitometry was performed using ImageStudio software and analyzed using Graphpad Prism. […]

T2 sequence (Q93009 whole entry, the tested form may be a part): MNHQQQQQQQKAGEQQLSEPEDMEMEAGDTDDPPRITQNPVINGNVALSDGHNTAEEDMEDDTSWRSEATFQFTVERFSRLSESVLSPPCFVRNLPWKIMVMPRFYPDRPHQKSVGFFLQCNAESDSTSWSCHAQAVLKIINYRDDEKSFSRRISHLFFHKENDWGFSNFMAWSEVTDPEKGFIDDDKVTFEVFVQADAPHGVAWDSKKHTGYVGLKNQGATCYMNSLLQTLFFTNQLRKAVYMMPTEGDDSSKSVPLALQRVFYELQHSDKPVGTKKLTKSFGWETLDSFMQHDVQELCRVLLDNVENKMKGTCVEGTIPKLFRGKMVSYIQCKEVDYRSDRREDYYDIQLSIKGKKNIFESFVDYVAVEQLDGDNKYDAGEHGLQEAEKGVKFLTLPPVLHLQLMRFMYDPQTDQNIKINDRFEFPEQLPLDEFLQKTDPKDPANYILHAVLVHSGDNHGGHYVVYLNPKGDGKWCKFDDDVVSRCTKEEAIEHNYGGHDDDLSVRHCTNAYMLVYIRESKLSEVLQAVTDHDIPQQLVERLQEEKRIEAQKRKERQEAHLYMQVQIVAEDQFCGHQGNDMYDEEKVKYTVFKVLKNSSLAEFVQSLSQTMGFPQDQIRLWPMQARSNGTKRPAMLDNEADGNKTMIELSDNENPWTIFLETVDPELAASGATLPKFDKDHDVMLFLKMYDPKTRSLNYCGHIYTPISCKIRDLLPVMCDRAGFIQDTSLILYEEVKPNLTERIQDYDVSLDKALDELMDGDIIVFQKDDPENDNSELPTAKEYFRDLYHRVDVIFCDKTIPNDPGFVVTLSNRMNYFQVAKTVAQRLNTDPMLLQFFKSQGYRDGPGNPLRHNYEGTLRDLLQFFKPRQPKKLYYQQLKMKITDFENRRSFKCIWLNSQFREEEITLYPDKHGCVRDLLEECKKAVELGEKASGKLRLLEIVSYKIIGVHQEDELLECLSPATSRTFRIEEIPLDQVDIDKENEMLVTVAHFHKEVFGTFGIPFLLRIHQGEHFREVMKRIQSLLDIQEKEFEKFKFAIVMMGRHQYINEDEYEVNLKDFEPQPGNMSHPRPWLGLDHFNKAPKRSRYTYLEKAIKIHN
T1 sequence (Q93009 208-560): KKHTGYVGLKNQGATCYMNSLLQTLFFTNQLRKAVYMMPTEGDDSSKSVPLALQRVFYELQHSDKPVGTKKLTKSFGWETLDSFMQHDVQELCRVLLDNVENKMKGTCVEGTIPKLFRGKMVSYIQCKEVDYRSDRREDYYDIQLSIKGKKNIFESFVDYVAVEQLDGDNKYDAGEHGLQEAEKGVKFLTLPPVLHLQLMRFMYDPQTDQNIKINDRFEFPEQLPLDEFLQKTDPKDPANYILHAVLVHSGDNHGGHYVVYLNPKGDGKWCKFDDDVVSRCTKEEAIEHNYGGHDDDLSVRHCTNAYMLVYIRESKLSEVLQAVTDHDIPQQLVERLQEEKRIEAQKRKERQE

CN1CCN(CCC(=O)Nc2ccc3c(=O)n(CC4(O)CCN(C(=O)C(CCCNC(=O)c5ccc6cc7c(nc6c5)CCCC7)Cc5ccccc5)CC4)cnc3c2)CC1 (centres unmarked) [XL058]
labeling of USP7 catalytic domain by MS [1]: unable to label
IC50 [2]: 904 nM

COc1ccc(C2=N[C@@H](c3ccc(Cl)cc3)[C@@H](c3ccc(Cl)cc3)N2C(=O)N2CCNC(=O)C2)c(OC(C)C)c1 [nutlin3a]
log2FoldChange [3]: 0.9473

CN1CCN(CCC(=O)Nc2ccc3c(=O)n(CC4CCN(C(=O)C(CCCNC(=O)c5ccc6c(Cl)c7c(nc6c5)CCCC7)Cc5ccccc5)CC4)cnc3c2)CC1 (centres unmarked) [XL024]
less potent than XL058 [2]: ~ 10 fold
less potent than XL112 [2]: ~ 1,000 fold
IC50 ([2]; Table S1): 8130 nM
IC50 [2]: 8000 nM

CN1CCN(CCC(=O)Nc2ccc3c(=O)n(CC4(O)CCN(C(=O)C(CCCNC(=O)c5ccc6c(Cl)c7c(nc6c5)CCCC7)Cc5ccccc5)CC4)cnc3c2)CC1 (centres unmarked) [XL112]
IC50 [2]: 5.9 nM

CCc1c(-c2ccc3[nH]ncc3c2)cnc(N)c1-c1ccc(O)cc1 [GNE-6640]
selectivity for TP53-WT versus TP53-mutant or TP53-KO cells [4]: showed little selectivity
selectivity for TP53-WT versus TP53-mutant or TP53-KO cells ([4]; listed as SB1_F_057): no differential response
differential response in TC32 TP53 knock out cells [5]: no differential

CN1CCN(CCC(=O)Nc2ccc3c(=O)n(CC4(O)CCN(C(=O)CCCCNC(=O)c5ccc6c(Cl)c7c(nc6c5)CCCC7)CC4)cnc3c2)CC1 [XL041]
mode of inhibition [6]: irreversible mode of inhibition
kinact ([6]; pre-incubation 5 min - 3 hours): 0.00373 s⁻¹
IC50 ([2]; Table S1): 152 nM
